From ChEMBL document CHEMBL1201862, “PubChem BioAssay data set” (2004)
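Interpolation was linear, between the two tested concentrations surrounding the appropriate level; five concentrations were tested over 48 hours in 96-well plates. GI50 is the concentration that inhibits growth by half.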 Activity calls are given as the source filed them. No stated cut-off is given here; in the data, active = GI50 up to about 1.1 µM and inactive = higher.

Tests used:
Assay in all cases: NCI tumour cell line growth inhibition, 48 h
A498 = tested on: A498
CCRF-CEM = tested on: CCRF-CEM
COLO 205 = tested on: COLO 205
EKVX = tested on: EKVX
HL-60 = tested on: HL-60
HOP-62 = tested on: HOP-62
IGROV-1 = tested on: IGROV-1
LOX IMVI = tested on: LOX IMVI
M14 = tested on: M14
MDA-MB-435 = tested on: MDA-MB-435
NCI-H460 = tested on: NCI-H460
OVCAR-3 = tested on: OVCAR-3
OVCAR-4 = tested on: OVCAR-4
PC-3 = tested on: PC-3
SF-268 = tested on: SF-268
SK-MEL-28 = tested on: SK-MEL-28
SK-OV-3 = tested on: SK-OV-3
SN12C = tested on: SN12C
SNB-19 = tested on: SNB-19
SK-MEL-2 = tested on: SK-MEL-2

SMILES	GI50 (A498)	GI50 (CCRF-CEM)	GI50 (COLO 205)	GI50 (EKVX)	GI50 (HL-60)	GI50 (HOP-62)	GI50 (IGROV-1)	GI50 (LOX IMVI)	GI50 (M14)	GI50 (MDA-MB-435)	GI50 (NCI-H460)	GI50 (OVCAR-3)	GI50 (OVCAR-4)	GI50 (PC-3)	GI50 (SF-268)	GI50 (SK-MEL-28)	GI50 (SK-OV-3)	GI50 (SN12C)	GI50 (SNB-19)	GI50 (SK-MEL-2)
Cc1ccc2c(=O)c3cccc(CC(=O)O)c3[nH]c2c1C	> 100 µM (inactive)	> 100 µM (inactive)	> 100 µM (inactive)	> 100 µM (inactive)	> 100 µM (inactive)	> 100 µM (inactive)	> 100 µM (inactive)	> 100 µM (inactive)	> 100 µM (inactive)	65.6 µM (inactive)	> 100 µM (inactive)	57.8 µM (inactive)	> 100 µM (inactive)	> 100 µM (inactive)	17.5 µM (inactive)	> 100 µM (inactive)	> 100 µM (inactive)	> 100 µM (inactive)	> 100 µM (inactive)	
CCOC(=O)COc1c(OC)cc(C2C3=C(COC3=O)Oc3cc4c(cc32)OCO4)cc1OC (centres undefined)		0.229 µM (active)	0.991 µM (active)	4.02 µM (inactive)	0.138 µM (active)	2.16 µM (inactive)	1.83 µM (inactive)	0.625 µM (active)	3.03 µM (inactive)	0.0635 µM (active)	7.94 µM (inactive)	0.528 µM (active)	2.46 µM (inactive)	1.87 µM (inactive)	13.5 µM (inactive)	0.614 µM (active)	3.17 µM (inactive)	1.72 µM (inactive)	13 µM (inactive)	8.75 µM (inactive)
Br[C@@H]1[C@H]2c3nc4ccccc4nc3[C@@H]1C[C@H]2Br	46.2 µM (inactive)	37 µM (inactive)	45.7 µM (inactive)	86.1 µM (inactive)	32.5 µM (inactive)	> 100 µM (inactive)	> 100 µM (inactive)	> 100 µM (inactive)	> 100 µM (inactive)	91.2 µM (inactive)	64.6 µM (inactive)	76.9 µM (inactive)	32.1 µM (inactive)	68.4 µM (inactive)	> 100 µM (inactive)	> 100 µM (inactive)	> 100 µM (inactive)	> 100 µM (inactive)	> 100 µM (inactive)	
O=c1[nH]cc(-c2c[nH]c3ccccc23)nc1-c1c[nH]c2ccccc12	14.7 µM (inactive)		10.9 µM (inactive)	12.2 µM (inactive)		12.5 µM (inactive)	2.92 µM (inactive)	11.2 µM (inactive)	10.7 µM (inactive)	3.29 µM (inactive)	13.8 µM (inactive)	9.51 µM (inactive)	6.58 µM (inactive)	14.5 µM (inactive)	13 µM (inactive)	15.2 µM (inactive)	13.4 µM (inactive)	13.2 µM (inactive)	15.8 µM (inactive)	14.8 µM (inactive)
CCOC(=O)c1c(SCCCN2CCCCC2)n(-c2ccccc2)c(=S)n(-c2ccccc2)c1=O	20.1 µM (inactive)	15.3 µM (inactive)	16.4 µM (inactive)	27.8 µM (inactive)	2.62 µM (inactive)	33 µM (inactive)			16.5 µM (inactive)	15.8 µM (inactive)		16.7 µM (inactive)	17.7 µM (inactive)	16.4 µM (inactive)	37.5 µM (inactive)	17.4 µM (inactive)		16.2 µM (inactive)	16.7 µM (inactive)	16.7 µM (inactive)
N=C(/C=C/c1ccc(-c2cn3cc(/C=C/C(=N)N4CCOCC4)ccc3n2)cc1)N1CCOCC1	> 100 µM (inactive)		> 100 µM (inactive)	> 100 µM (inactive)		> 100 µM (inactive)	> 100 µM (inactive)		> 100 µM (inactive)	> 100 µM (inactive)	> 100 µM (inactive)	> 100 µM (inactive)	> 100 µM (inactive)	> 100 µM (inactive)	> 100 µM (inactive)	> 100 µM (inactive)	> 100 µM (inactive)	> 100 µM (inactive)	> 100 µM (inactive)	> 100 µM (inactive)
COP(=O)(OC)/C(=C\c1cn(C(c2ccccc2)(c2ccccc2)c2ccccc2)cn1)NC(C)=O	> 100 µM (inactive)	77.1 µM (inactive)	84.3 µM (inactive)	> 100 µM (inactive)	53.8 µM (inactive)	> 100 µM (inactive)	> 100 µM (inactive)	> 100 µM (inactive)	> 100 µM (inactive)	> 100 µM (inactive)	> 100 µM (inactive)	> 100 µM (inactive)	> 100 µM (inactive)	> 100 µM (inactive)	> 100 µM (inactive)	> 100 µM (inactive)	> 100 µM (inactive)	> 100 µM (inactive)	> 100 µM (inactive)	
Nc1c(S(N)(=O)=O)cc(S(N)(=O)=O)cc1S(N)(=O)=O	> 100 µM (inactive)		> 100 µM (inactive)	> 100 µM (inactive)		> 100 µM (inactive)	> 100 µM (inactive)	> 100 µM (inactive)	> 100 µM (inactive)	> 100 µM (inactive)	> 100 µM (inactive)	> 100 µM (inactive)	> 100 µM (inactive)	61.1 µM (inactive)	> 100 µM (inactive)	> 100 µM (inactive)	> 100 µM (inactive)	> 100 µM (inactive)	> 100 µM (inactive)	
CCCCCCCCC/C=C1/CC(CO)(COC(=O)c2ccccc2)OC1=O (centres undefined)	13.2 µM (inactive)	10.9 µM (inactive)	1.85 µM (inactive)	14.9 µM (inactive)		4.92 µM (inactive)	16.1 µM (inactive)		14 µM (inactive)	11.1 µM (inactive)	10 µM (inactive)	16.7 µM (inactive)	12.7 µM (inactive)	10.8 µM (inactive)	15.7 µM (inactive)	13.7 µM (inactive)	18.6 µM (inactive)	12.5 µM (inactive)	15.4 µM (inactive)	16.3 µM (inactive)
O=C(Cn1c2ccc(Br)cc2c2nc3ccccc3nc21)N1CCOCC1	> 100 µM (inactive)	> 100 µM (inactive)	> 100 µM (inactive)			> 100 µM (inactive)	49.7 µM (inactive)	39.8 µM (inactive)	> 100 µM (inactive)	> 100 µM (inactive)	> 100 µM (inactive)	> 100 µM (inactive)	> 100 µM (inactive)	95.7 µM (inactive)	> 100 µM (inactive)	> 100 µM (inactive)	> 100 µM (inactive)	> 100 µM (inactive)	> 100 µM (inactive)	> 100 µM (inactive)
COc1ccc(/C=c2\s/c(=C3/SC(=S)N(c4ccccc4)C3=O)n(-c3ccccc3)c2=O)cc1	36.6 µM (inactive)	24 µM (inactive)	> 100 µM (inactive)	> 100 µM (inactive)	> 100 µM (inactive)	21.6 µM (inactive)	19.7 µM (inactive)	> 100 µM (inactive)	> 100 µM (inactive)	> 100 µM (inactive)	12.8 µM (inactive)	> 100 µM (inactive)	> 100 µM (inactive)	> 100 µM (inactive)	0.895 µM (active)	> 100 µM (inactive)	12.1 µM (inactive)	> 100 µM (inactive)	35.4 µM (inactive)	
